Experimental data as given in US9737517B2, “Pharmaceutical use of hexahydro-dibenzo[a,g]quinolizine compounds” (SHANGHAI INSTITUTE OF MATERIA MEDICA, CHINESE ACADEMY OF …, priority 2013, dated 2017).

Key:
α1A-AR = biological target: T1, α1A-AR (Homo sapiens, UniProt P35348); assay: Tag-lite receptor binding assay, HEK293 cells expressing SNAP-α1A-AR; details: for IC50: Tag-lite binding, HEK293 SNAP-α1A-AR; for α1B/α1A: ratio of Tag-lite binding values
T1 construct: expressed in transfected cells; host or cells: HEK293
T1 sequence (P35348 1-466): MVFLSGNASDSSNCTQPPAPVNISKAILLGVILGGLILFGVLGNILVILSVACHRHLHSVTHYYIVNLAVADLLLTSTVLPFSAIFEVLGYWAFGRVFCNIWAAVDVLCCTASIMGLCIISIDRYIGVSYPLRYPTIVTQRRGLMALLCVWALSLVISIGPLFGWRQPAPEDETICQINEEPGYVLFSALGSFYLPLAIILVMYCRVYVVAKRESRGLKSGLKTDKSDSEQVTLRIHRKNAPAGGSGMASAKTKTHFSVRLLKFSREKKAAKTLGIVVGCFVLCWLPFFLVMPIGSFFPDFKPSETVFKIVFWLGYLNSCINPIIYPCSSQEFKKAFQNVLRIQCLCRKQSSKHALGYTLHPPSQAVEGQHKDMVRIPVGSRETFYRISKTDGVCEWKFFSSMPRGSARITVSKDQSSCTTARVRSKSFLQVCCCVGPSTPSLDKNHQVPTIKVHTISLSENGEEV
Description: (§1) Tag-lite assay was used to study receptor binding activity. Tag-lite assay was a combination of SNAP-Tag and HTRF technology, and was used to analyze surface receptors on live cell. SNAPs were small tag fusion proteins which could irreversibly, specifically and covalently bind to substrates via benzylmethyl, and the substrates were benzylmethyl guanine and benzylmethyl cytosine. Substrates and various dyes formed derivatives, and through covalent reaction, the dye was labeled onto SANPs. Plasmid was constructed using pSNAP and α1-AR encoding gene. After transfection into cells, N-terminal fusion protein of SNAP and α1-AR was expressed. The substrate and HTRF fluorescent dye (donor compound Lumi4-Tb) formed a derivative which reacted with SANP-α1-AR fusion protein so that Tb was labeled onto α1-AR. After adding acceptor fluorescent dye-labeled ligand, the receptor and ligand binding experiment was performed.
(§2) HEK293 cells stably expressing SNAP-α1A-AR, SNAP-α1B-AR, SNAP-α1D-AR were seeded in 3 cm dishes, and cultured for 24 hours. 100 nM Tag-lite SNAP Lumi4Tb was added and incubated for 1 h in an incubator. Cells were detached and washed with a labeling buffer for 4 times, and then was added into a 384-well plate in a volume of 10 μL per well. […] After incubation at room temperature for 1 hour, fluorescence intensity changes caused by cell receptor and ligand changes were detected using 665 nm (acceptor) and 620 nm (donor) at same time.
(§3) After incubation with different drugs, the reaction rate of cells to 1-AR fluorescein-labeled known ligand was calculated as follows: Reaction rate %=(D−B)/(S−B)*100%
(§4) The reaction rate of the same drug at different doses was tested using GraphPad Prism software by non-linear regression analysis, and the dose-response curve was obtained and Ki values was measured. Data were obtained from three separate experiments, and each experiment includes three duplicate wells.

α1B-AR = biological target: T2, α1B-AR (Homo sapiens, UniProt P35368); assay: Tag-lite receptor binding assay, HEK293 cells expressing SNAP-α1B-AR
T2 construct: expressed in transfected cells; host or cells: HEK293
T2 sequence (P35368 1-520): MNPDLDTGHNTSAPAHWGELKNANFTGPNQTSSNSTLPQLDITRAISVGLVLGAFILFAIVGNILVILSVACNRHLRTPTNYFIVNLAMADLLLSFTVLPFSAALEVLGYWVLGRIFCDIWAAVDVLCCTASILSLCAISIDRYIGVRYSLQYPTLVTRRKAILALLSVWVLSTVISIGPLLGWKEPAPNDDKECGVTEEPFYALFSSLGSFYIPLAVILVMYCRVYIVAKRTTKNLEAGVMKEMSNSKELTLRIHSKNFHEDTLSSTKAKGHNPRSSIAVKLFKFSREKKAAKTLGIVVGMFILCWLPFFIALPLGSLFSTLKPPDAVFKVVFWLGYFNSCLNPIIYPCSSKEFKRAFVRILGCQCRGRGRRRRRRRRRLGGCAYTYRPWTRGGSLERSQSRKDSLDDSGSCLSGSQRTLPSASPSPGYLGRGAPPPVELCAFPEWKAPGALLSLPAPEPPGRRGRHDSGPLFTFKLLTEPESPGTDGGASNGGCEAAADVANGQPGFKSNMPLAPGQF
Description: as §1, §2, §3, §4

urethra smooth muscle = assay: In vitro urethra smooth muscle experiment (norepinephrine-induced contraction); parameters: species or system Wistar rats; Urethra inhibition rate (%): concentration or dose not given beside the values; details: for IC50: isolated rat prostatic urethra, norepinephrine 3×10^−4 mol/L; for Urethra inhibition rate (%): norepinephrine-induced contraction; for Aorta/Urethra: selectivity ratio of IC50 values
Experimental: Healthy male Wistar rats were hit head to cause faint. The abdominal cavity and the pubic symphysis was quickly cut so as to quickly remove the prostatic urethra, which was immediately placed into a dish filled with 4° C. Kerbs-Henseleit solution (K-H solution). The surrounding tissue were carefully separated, and muscle strips about 3-5 mm were obtained, and the lower end was fixed onto a 20 mL of thermostatic bath and the upper end was connected onto a pressure transducer. Nutrient liquid was K-H solution, and carbogen (95% oxygen and 5% carbon dioxide) was aerated, and the bath temperature was 37° C., and resting tension applied was 0.5 g. The nutrient liquid was replaced every 6-8 mins. Until baseline stabilized, norepinephrine was added with a final concentration of 3×10^−4 mol/L in bath tube. When the contraction curve reached the highest point, it was rinsed immediately to recover to baseline levels. When baseline was stabilized, test drug with different concentrations was added respectively, and incubated 3-5 mins. 60 μL 1×10^−1 M norepinephrine was added with a final concentration of 3×10^−4 mol/L in bath tube, and the contraction curve was recorded.

[1] = system: vascular smooth muscle (thoracic aorta); assay: In vitro vascular smooth muscle experiment (norepinephrine-induced contraction of thoracic aorta rings); parameters: species or system Wistar rats; details: isolated rat thoracic aorta rings, norepinephrine 10^−7 mol/L
Experimental: Healthy male Wistar rats were hit head to cause faint. The abdominal cavity was quickly cut, and the thoracic aorta was taken out. The attached tissue was separated and cut into 2-3 mm vascular rings. The experiment was carried out in the same manner as in urethral smooth muscle experiment. The resting tension applied was 1 g, and when baseline was stabilized, norepinephrine was added with a final concentration of 10^−7 mol/L in bath tube. When the contraction curve reached the highest point, rinse was performed immediately to recover to baseline levels. When baseline was stabilized, test drug with different concentrations was added respectively, and incubated 3-5 mins. 20 μL 1×10^−4 M norepinephrine was added with a final concentration of 10^−7 mol/L in bath tube, and contraction curve was recorded.

Structure (SMILES) | IC50 (α1A-AR) [nM] | α1B/α1A (α1A-AR) | IC50 (α1B-AR) [nM] | IC50 (urethra smooth muscle) [nM] | Urethra inhibition rate (%) (urethra smooth muscle; isolated rat urethra) | Aorta/Urethra (urethra smooth muscle; isolated rat tissues) | IC50 [1] [nM] | selectivity (Aorta/Urethra) relative to Silodosin (urethra smooth muscle; isolated rat tissues) [folds] | selectivity (Aorta/Urethra) relative to tamsulosin (urethra smooth muscle; isolated rat tissues) [folds] | urethra suppression rate compared with positive drugs (urethra smooth muscle; isolated rat urethra)
COc1cc2c(cc1OCc1ccccc1)C[C@H]1c3cc4c(cc3CCN1C2)OCO4 [DC037016] | 16.6 | 33.8 | 560 | 5.12 | 38 | 1953 | 10000 |  |  | 
COc1cc2c(cc1OC)CN1CCc3cc4c(cc3[C@@H]1C2)OCO4 [DC037009, S-(−)-2,3-methylenedioxy-10,11-dimethoxy-5,8,13,13a-tetrahydro-6H-dibenzo[a,g]quinolizine] | 2.83 | 45.3 | 128 | 1.66 | 80 | 873 | 1420 | 11 | 1671 | comparable to that of the positive drugs
C[C@H](Cc1cc2c(c(C(N)=O)c1)N(CCCO)CC2)NCCOc1ccccc1OCC(F)(F)F [Silodosin, reference compound] | 0.07 | 8.7 | 0.61 | 0.82 | 88 | 76.8 | 63 |  |  | 
